Experimental data published in paper PMC10010340, “The Wnt Pathway Inhibitor RXC004 Blocks Tumor Growth and Reverses Immune Evasion in Wnt Ligand–dependent Cancer Models” (Cancer Research Communications, 2022).

Columns and labels:
HCT116 cells = test: In vitro glucose uptake; type: cell-based, human; settings: HCT116, RXC004 100 nmol/L, 48 hours
Method: (§1) SNU-1411, HPAF-II, and HCT116 cells were treated in vitro for 48 hours with RXC004 (100 nmol/L), Latrunculin A (Abcam #ab144290; 500 nmol/L), or DMSO prior to analysis using the Glucose Uptake Glo Assay Kit (Promega #J1341). The ATPlite assay was used to control for cell viability, confirming RXC004 has no effect on proliferation at this 48 hours timepoint.

SNU-1411 cells = test: In vitro glucose uptake; type: cell-based, human; settings: Homo sapiens; SNU-1411, RXC004 100 nmol/L, 48 hours
Method: as §1

HPAF-II cells = test: In vitro glucose uptake; type: cell-based, human; settings: Homo sapiens, RXC004 100 nmol/L, 48 hours
Method: as §1

Microsomal stability [1] = type: in vitro ADME, mouse (CD1); settings: Mouse, 1 μmol/L
Method: (§2) Metabolic stability: liver microsomes and hepatocytes from human, mouse (CD1), rat (Sprague Dawley) and dog (Beagle) were obtained from Invitrogen. RXC004 (1 μmol/L) was incubated at 37°C with microsomes (0.5 mg · mL^−1) or hepatocytes (0.5 × 10^6 cells · mL^−1). Aliquots were removed at 0–45 minutes and RXC004 concentrations determined by LC/MS-MS analysis. Half-life (T1/2) and intrinsic clearance (CLint) were calculated as described in ref. [18].

B16F10 tumors = test: B16F10/C57BL/6 syngeneic model; type: in vivo, mouse (C57BL/6)
Method: B16F10/C57BL/6 syngeneic model was performed at Axis Bioservices. Mouse B16F10 cells (2 × 10^5) were subcutaneously implanted in flanks of the immunocompetent male C57BL/6 mice. Treatment was initiated at day 3, once tumors were palpable with RXC004 being dosed orally as indicated. Anti-programmed cell death protein-1 (PD-1; RMP1-14, BioXcell) or isotype control was dosed at 100 μg per dose intraperitoneal, twice weekly. Anti-CTLA-4 antibody (BioXCell BP0131) or isotype control was dosed intraperitoneally every 3 days at 100 μg per dose. Separate experiments were performed for tumor volume and flow cytometry analysis. Tumor volume was assessed in each animal and/or group until prespecified termination conditions and/or study endpoint were reached. For flow cytometry, tumors were resected at day 19, 2 hours after final dose, weighed and digested into a single-cell suspension using collagenase (Liberase, Roche) and DNAase and passed through a strainer prior to flow cytometry analysis on FACS Canto II apparatus using Flow JO software. Single and fluorescence minus one stains were used for compensation setup and gating controls respectively. A myeloid analysis panel included Zombie viability dye (BioLegend #423106), CD11b (BioLegend #101228), CD45, Ly6C, and Ly6G (BD Biosciences #563891, #562727, #551460). Myeloid myeloid-derived suppressor cells (MDSC) were gated as CD45^+CD11b^+ Ly6G-Ly6C^high and polymorphonuclear MDSCs were gated as CD45^+CD11b^+ Ly6G^+Ly6C^med ([21]). For gene expression analysis, tumors were snap frozen, total RNA was extracted and mRNA expression levels for various genes analyzed using the Nanostring nCounter Mouse PanCancer IO360 Codeset.

Lipophilicity (logD7.4) = type: physicochemical
Method: Lipophilicity (logD7.4): A total of 30 μL of a 20 mmol/L stock solution of RXC004 was added to a vial containing 1.5 mL of pH7.4 phosphate buffer saturated octanol and 1.5 mL of octanol-saturated pH7.4 phosphate buffer, shaken and centrifuged to ensure phase separation. logD7.4 was calculated as the logarithm of the ratio of the concentration of RXC004 (measured by LC-UV in octanol vs. buffer phase).

HCT116 xenograft = test: Xenograft pilot study; type: in vivo, mouse (athymic nude); settings: HCT116, 1.5 mg/kg twice daily oral, 28 days
Method: (§3) The in vivo pilot studies were performed at Axis Bioservices. HPAF-II (5 × 10^6 cells; athymic nude mice), AsPC1 (3 × 10^6 cells; athymic nude mice), and SNU-1411 (1 × 10^7 cells; NOD-SCID mice) were implanted bilaterally, subcutaneously, whereas HCT116 (3 × 10^6 cells; athymic nude mice) were implanted in a single flank. Animals were randomized into the indicated groups and treatment initiated once tumor volumes reached approximately 100–150 mm^3. Dosing was either 1.5 mg/kg twice daily RXC004 for 7–13 days then once daily for the remainder of study (up to 29 days), or 28 days 1.5 mg/kg twice daily RXC004 for HCT116. In these and all other animal studies, unless otherwise specified, RXC004 was dosed orally in 0.5% carboxymethylcellulose + 0.1% Tween-80. For AsPC1, an ascites model, end of study tumor weight (mg) was measured. A total of 12 hours after the final dose, RNA was extracted [GenElute RNA isolation kit (#RTN70, Sigma)] from snap frozen tumor for qRT-PCR expression analysis of Axin2, c-Myc, RNF43, MUC4, and MUC5AC relative to appropriate housekeepers.

HPAF-II xenograft = test: Xenograft pilot study; type: in vivo, mouse (athymic nude); settings: 1.5 mg/kg twice daily oral
Method: as §3

AsPC1 xenograft = test: Xenograft pilot study; type: in vivo, mouse (athymic nude); settings: AsPC1, 1.5 mg/kg twice daily oral
Method: as §3

In vivo pharmacokinetics = test: In vivo pharmacokinetics; design: species or system rat (male Sprague Dawley); settings: rat
Method: In vivo pharmacokinetics: RXC004 was dosed to male Sprague Dawley rats, male CD1 mice or dog (beagle) by intravenous and oral routes. Bioanalysis of blood and plasma samples was performed by LC/MS-MS using a Waters TQS or TQMS mass spectrometer. Pharmacokinetic information was derived using WinNonlin software (Certara).

Microsomal stability [2] = type: in vitro ADME, rat (Sprague Dawley); settings: Rat, 1 μmol/L
Method: as §2

[3] = male, Sprague Dawley, in vivo, po, 5 mg/kg p.o.

Cc1c(-c2ccnc(C(F)(F)F)c2)ncn1CC(=O)Nc1ccc(-c2cnccn2)cn1 [RXC004, 2-[5-methyl-4-[2-(trifluoromethyl)-4-pyridyl]imidazol-1-yl]-N-(5-pyrazin-2-yl-2-pyridyl)acetamide]
glucose uptake (HCT116 cells): had no effect | inhibition at 0.1 µM (SNU-1411 cells): > 50% | inhibition at 0.1 µM (HPAF-II cells): > 50% | Microsomal stability: CLint (Microsomal stability [1]): 3.9 μL minute^−^1 · mg^−^1 | survival hazard ratio (B16F10 tumors; 5 mg/kg QD versus vehicle, P <0.0001, Log-rank test): 0.27 | survival (B16F10 tumors; 5 mg/kg once daily): significantly increased survival | tumor expression of CXCL9 (B16F10 tumors; 5 mg/kg once daily): increased tumor expression of the chemokine CXCL9 | tumor-associated CD45+ immune cells (Nanostring) (B16F10 tumors; 5 mg/kg once daily): significantly increased the overall tumor-associated CD45^+ immune cells | circulating MDSC (B16F10 tumors; 5 mg/kg once daily, day 19): concomitant increase in circulating MDSC | tumor-associated MDSCs (B16F10 tumors; 5 mg/kg once daily, day 19): significantly reduced tumor-associated MDSCs | tumor volume / tumor growth (B16F10 tumors; RXC004 5 mg/kg once daily, anti-PD-1 100 μg per dose twice a week): significant tumor growth inhibition | logD (Lipophilicity (logD7.4); octanol/phosphate buffer, pH 7.4, pH 7.4, octanol/phosphate buffer, read-out: Measured log D7.4): 2.4 | Measured log D7.4 (Lipophilicity (logD7.4); pH 7.4, octanol/phosphate buffer): 2.44 | tumor growth (HCT116 xenograft): No effect | Wnt-responsive gene expression in tumor including c-Myc (HPAF-II xenograft): inhibition of Wnt-responsive gene expression | tumor growth (HPAF-II xenograft): reduction in tumor growth | Wnt-responsive gene expression in tumor including c-Myc (AsPC1 xenograft): inhibition of Wnt-responsive gene expression | tumor growth (tumor weight) (AsPC1 xenograft): reduction in tumor growth | clearance (In vivo pharmacokinetics; male, Sprague Dawley, in vivo, intravenous, 2 mg/kg, dose i.v./p.o. 2/5 mg/kg): 5.8 mL/min/kg | Vd (In vivo pharmacokinetics; male, Sprague Dawley, in vivo, intravenous, 2 mg/kg, dose i.v./p.o. 2/5 mg/kg, read-out: Vss): 0.64 L/kg | AUC(0-inf) (In vivo pharmacokinetics; [3]): 10.5 µM·h | Cmax (In vivo pharmacokinetics; [3]): 3.6 µM | concentration at 24 h (In vivo pharmacokinetics; male, Sprague Dawley, in vivo, po, 5 mg/kg p.o., read-out: C24h (p.o.)): 9 nM | half-life (In vivo pharmacokinetics; male, Sprague Dawley, in vivo, dose i.v./p.o. 2/5 mg/kg, read-out: T½ (converted)): 150 min | F (p.o.) (In vivo pharmacokinetics; dose i.v./p.o. 2/5 mg/kg): 31% | Microsomal stability: CLint (Microsomal stability [2]): 7.8 μL minute^−^1 · mg^−^1
